Some results are limits rather than exact numbers.

Data set [1] deals with T1, Replicase polyprotein 1ab (Severe acute respiratory syndrome coronavirus 2, UniProt P0DTD1). Briefly: Inhibition of 2019-nCoV-2 3CLp using fluorescent substrate by FRET assay.
Data set [2] can be described thus: Cytotoxicity against African green monkey Vero E6 cells. It is filed as toxicity, cell-based, Vero C1008. The following applies: chlorocebus sabaeus.
Data set [3] is described as follows: Oral bioavailability in Sprague-Dawley rat at 10 mg/kg. It is filed as ADME, organism-based. As to conditions: in vivo.
The target in data set [4] is T1, Replicase polyprotein 1ab. In words: Inhibition of recombinant SARS-CoV-2 3CLp using fluorogenic substrate by microplate reader.
Data set [5] has as its system SARS-CoV-2. In words: Antiviral activity against SARS-CoV-2. It is filed as functional, organism-based. The following applies: Severe acute respiratory syndrome coronavirus 2.
For data set [6], the target named is T1, Replicase polyprotein 1ab. Briefly: Inhibition of SARS-CoV-2 recombinant 3CLpro using fluorogenic substrate (Dabcyl-KTSAVLQ]SGFRK M-E.
For data set [7], the target named is von Hippel-Lindau disease tumor suppressor-SARS-Cov-2 polyprotein (Severe acute respiratory syndrome coronavirus 2, UniProt P0DTD1+P40337). Briefly: PROTAC activity at SARS-CoV-2 Main protease/VHL (unknown origin) in SARS-CoV-2 infected african green monkey Vero cell assessed as inhibition of virus-mediated cytopathic effect measured after 72 hrs. It is filed as cell-based. In general terms: Damage to the host cells serves as the signal in cytopathic effect assays.

Data set [8] relates to SARS-CoV-2. In words: Antiviral activity against SARS-CoV-2 infected in African green monkey Vero E6 cells assessed as inhibition of virus induced cytopathic effect by CellTiter-Glo luminescent cell viability assay. It is filed as functional, organism-based. As to conditions: Severe acute respiratory syndrome coronavirus 2, Vero C1008.
Data set [9] deals with T1, Replicase polyprotein 1ab. Briefly: Inhibition of SARS-CoV-2 3CLp using fluorescent substrate by FRET assay.
Data set [10] addresses T1, Replicase polyprotein 1ab. Briefly: Inhibition of SARS-CoV-2 recombinant main protease. It is filed as single protein.

Chain of von Hippel-Lindau disease tumor suppressor-SARS-Cov-2 polyprotein (P40337 whole entry, other chains not shown): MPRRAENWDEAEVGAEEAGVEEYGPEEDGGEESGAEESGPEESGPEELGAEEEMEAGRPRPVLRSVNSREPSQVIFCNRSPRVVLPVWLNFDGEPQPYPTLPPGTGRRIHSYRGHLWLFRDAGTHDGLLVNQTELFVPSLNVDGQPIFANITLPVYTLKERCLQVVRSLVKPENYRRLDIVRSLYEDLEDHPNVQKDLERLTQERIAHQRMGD

As a reminder, the IC50 is the point on the concentration scale where inhibition reaches its midpoint. One may read the CC50 as the concentration at which the toxic effect on the cells reaches its halfway point. As to `CC(C)(C)NC(=O)[C@@H](c1cccnc1)N(C(=O)c1c[nH]cn1)c1ccc(C(C)(C)C)cc1`, the IC50 in data set [1] came to 960 nM. The CC50 in data set [2] was found to be 129000 nM.

Consider `C[C@H](NC(=O)[C@@H](c1cccnc1)N(C(=O)c1ccco1)c1ccc(-c2ccccc2)cc1)c1ccccc1`, for which, in data set [1], the IC50 was 660 nM. Besides, in [2], the CC50 was more than 200000 nM.

The term bioavailability denotes the share of a dose that reaches the circulation, judged against a reference dose that is usually intravenous. The compound `O=C[C@H](C[C@@H]1CCNC1=O)NC(=O)[C@@H]1[C@H]2CCC[C@H]2CN1C(=O)COc1ccc(Cl)c(Cl)c1` showed a bioavailability in data set [3] of 5.1%. Besides, in data set [4], the IC50 was found to be 19 nM.

The compound `O=C[C@H](C[C@@H]1CCNC1=O)NC(=O)[C@@H]1[C@H]2CCC[C@H]2CN1C(=O)COc1ccc(Cl)cc1` returned a bioavailability in data set [3] of 7.2%. Also, the IC50 in data set [4] was found to be 9 nM.

For the compound `CC1(C)[C@@H]2[C@@H](C(=O)N[C@H](C=O)C[C@@H]3CCNC3=O)N(C(=O)COc3ccc(Cl)cc3)C[C@@H]21`, the bioavailability in data set [3] was found to be 4.8%. In [4], the half-maximal inhibitory concentration (IC50) turned out to be 9 nM.

What is called EC50 is the midpoint of the concentration-response curve. In the data set on SARS-CoV-2 [5], `COc1cc(O)c2c(c1)O[C@H](c1cc(O)c(O)c(O)c1)[C@@H](O)C2=O` yielded an EC50 of 11500 nM.

Compound `CC1(C)[C@@H]2[C@@H](C(=O)N[C@H](C=O)C[C@@H]3CCNC3=O)N(C(=O)COc3ccc(Cl)cc3Cl)C[C@@H]21` returned a bioavailability in data set [3] of 4.1%. For the same compound, in [4], the IC50 came out at 10 nM.

For the compound `COc1cc(O)c2c(=O)c(O)c(-c3cc(O)c(O)c(O)c3)oc2c1`, in the data set on SARS-CoV-2 [5], the response was half-maximal at 12600 nM (EC50).

For `CNC(=O)c1cc(Br)cc([N+](=O)[O-])c1N[C@H]1CCCC[C@H]1NC(=O)c1cncc2cc(O)ccc12`, in data set [6], the IC50 stood at 120000 nM.

As for `O=c1c(O)c(-c2cc(O)c(O)c(O)c2)oc2cc(OP(=O)(Oc3ccccc3)Oc3ccccc3)cc(O)c12`, a half-maximal response with SARS-CoV-2 [5] (EC50) required 3150 nM.

Consider `Cc1ncsc1-c1ccc(CNC(=O)[C@@H]2C[C@@H](O)CC2C(=O)[C@@H](NC(=O)CCC(=O)NCCOCCn2nnc(COC(=O)N[C@@H](CC(C)C)C(=O)N[C@@H](C[C@@H]3CCNC3=O)C(O)S(=O)(=O)O)c2C)C(C)(C)C)cc1` (stereo partly specified), for which the EC50 in [7] was found to be 10100 nM.

With `Cc1ncsc1-c1ccc(CNC(=O)[C@@H]2C[C@@H](O)CN2C(=O)[C@@H](NC(=O)CCOCCOCCOCCn2nnc(COc3ccc(OC(=O)N[C@@H](CC(C)C)C(=O)N[C@@H](C[C@@H]4CCNC4=O)C(O)S(=O)(=O)O)cc3)c2C)C(C)(C)C)cc1` (stereo partly specified), in [7], the EC50 was 210 nM.

On to `CNC(=O)[C@@H](Cc1cccc(F)c1)NC(=O)C1CN(C(=O)c2cncc3cccc(O)c23)CCN1Cc1ccc(Cl)cc1Cl` (stereo partly specified), for which the IC50 in data set [6] worked out at 165000 nM.

On to `CCC[C@H]1C(=O)N2C[C@]3(C[C@H]2C#N)C(=O)Nc2ccc(cc23)CCCCCN1C(=O)c1cc2c(F)cc(F)c(F)c2[nH]1`, for which the EC50 with SARS-CoV-2 [8] is less than 100 nM. For the same compound, in data set [9], the IC50 is less than 100 nM.

`CC(C)[C@H]1C(=O)N2C[C@]3(C[C@H]2C#N)C(=O)Nc2ccc(cc23)CCCCCN1C(=O)c1cc2c(F)cc(F)c(F)c2[nH]1`: the EC50 in the data set with SARS-CoV-2 [8] was less than 100 nM. This compound also returned an IC50 in data set [9] of less than 100 nM.

For the compound `CC(C)(C)NC(=O)[C@@H](c1cccnc1)N(C(=O)c1cnco1)c1ccc(-c2ccccc2)cc1`, in data set [1], the IC50 amounted to 4970 nM. The compound further had a CC50 in [2] of 67000 nM.

`N#C[C@@H]1C[C@]23CN1C(=O)[C@H](c1ccccc1)N(C(=O)C1CN(c4ccc(F)cc4)N=N1)CCCCCc1ccc(c2c1)NC3=O` (stereo partly specified): the EC50 in the data set with SARS-CoV-2 [8] is more than 1000 nM. This compound came in with an IC50 in data set [9] of less than 100 nM.

`CC(C)(C)c1ccc(N(C(=O)c2ccco2)[C@@H](C(=O)NC2CCCC2)c2cccnc2)cc1`: in [1], inhibition was half-maximal at 2510 nM (IC50). This compound displayed a CC50 in [2] of 101000 nM.

In turn, `CC(C)CCOc1cc(O)c2c(=O)c(O)c(-c3cc(O)c(O)c(O)c3)oc2c1` yielded an EC50 with SARS-CoV-2 [5] of 31500 nM. The compound also displayed an IC50 in [9] of 1920 nM.

`CCOc1cc(O)c2c(=O)c(O)c(-c3cc(O)c(O)c(O)c3)oc2c1` had an EC50 in the data set on SARS-CoV-2 [5] of 51000 nM. This compound also gave an IC50 in data set [9] of 740 nM.

In the case of `CC(C)[C@H]1C(=O)N2C[C@]3(C[C@H]2C#N)C(=O)Nc2ccc(cc23)CCCCCN1C(=O)c1cc2c(F)cc(F)cc2[nH]1`, the EC50 in the data set on SARS-CoV-2 [8] was less than 100 nM. The compound further returned a concentration for half-maximal inhibition (IC50) in data set [9] of less than 100 nM.

As for `CC(C)(C)c1ccc(N(C(=O)c2ccco2)[C@@H](C(=O)NC2CC2)c2cccnc2)cc1`, inhibition in data set [1] was half-maximal at 3860 nM (IC50). This compound also yielded a CC50 in data set [2] of 52800 nM.

For `Cc1ncsc1-c1ccc(CNC(=O)[C@@H]2C[C@@H](O)CN2C(=O)[C@@H](NC(=O)CCOCCOCCOCCn2nnc(COc3ccc(OC(=O)N[C@@H](CC(C)C)C(=O)N[C@H](C=O)C[C@@H]4CCNC4=O)cc3)c2C)C(C)(C)C)cc1`, the EC50 in data set [7] is 80 nM.

Consider `CC(C)(C)NC(=O)[C@@H](c1cnccn1)N(C(=O)c1ccco1)c1ccc(-c2ccccc2)cc1`, for which the midpoint of inhibition in [1], the IC50, lay at 280 nM. For the same compound, the CC50 in data set [2] is more than 200000 nM.

Regarding `CC(C)[C@H]1C(=O)N2C[C@]3(C[C@H]2C#N)C(=O)Nc2ccc(cc23)CCCCCN1C(=O)C1CN(c2ccccc2)N=N1` (stereo partly specified), in the data set with SARS-CoV-2 [8], the EC50 is less than 100 nM. Further, the IC50 in data set [9] was less than 100 nM.

For the compound `Cc1ncsc1-c1ccc(CNC(=O)[C@@H]2C[C@@H](O)CN2C(=O)[C@@H](NC(=O)CCOCCOCCOCCn2nnc(COC3CCC(OC(=O)N[C@@H](CC(C)C)C(=O)N[C@H](C=O)C[C@@H]4CCNC4=O)CC3)c2C)C(C)(C)C)cc1` (stereo partly specified), the EC50 in [7] is 350 nM.

As to `CC(C)[C@H]1C(=O)N2C[C@]3(C[C@H]2C#N)C(=O)Nc2ccc(cc23)CCCCCN1C(=O)c1cc2ccc(C(F)(F)F)cc2[nH]1`, the 50% effective concentration (EC50) in the data set on SARS-CoV-2 [8] is less than 100 nM. Further, in data set [9], half-maximal inhibition (IC50) required 100 nM.

`CC1COP(=O)(Oc2cc(O)c3c(=O)c(O)c(-c4cc(O)c(O)c(O)c4)oc3c2)OC1` (stereo unspecified) displayed an EC50 in the data set on SARS-CoV-2 [5] of 33400 nM. Moreover, in [9], half-maximal inhibition (IC50) was put at 6620 nM.

For the compound `O=C1c2c(O)cc(OP(=O)(Oc3ccccc3)Oc3ccccc3)cc2O[C@H](c2cc(O)c(O)c(O)c2)[C@H]1O`, the EC50 with SARS-CoV-2 [5] turned out to be 9030 nM.

`O=c1c(O)c(-c2cc(O)c(O)c(O)c2)oc2cc(OCC3CCCC3)cc(O)c12` had an EC50 in the data set on SARS-CoV-2 [5] of 7560 nM. This compound showed a half-inhibitory concentration (IC50) in [9] of 2450 nM.

For `CC(C)(C)NC(=O)[C@@H](c1cccnc1)N(C(=O)c1ccno1)c1ccc(-c2ccccc2)cc1`, the IC50 in [1] was 2470 nM. The CC50 in data set [2] is more than 200000 nM.

With `C[C@H](NC(=O)[C@@H](c1cccnc1)N(C(=O)c1ccco1)c1ccc(-n2cccc2)cc1)c1ccccc1`, the 50% inhibitory concentration (IC50) in data set [1] is 940 nM. In addition, the CC50 in [2] is more than 200000 nM.

As to `Cc1ncsc1-c1ccc(CNC(=O)[C@@H]2C[C@@H](O)CN2C(=O)[C@@H](NC(=O)CCOCCOCCOCCn2nnc(COC(=O)N[C@@H](CC(C)C)C(=O)N[C@H](C=O)C[C@@H]3CCNC3=O)c2C)C(C)(C)C)cc1`, the 50% effective concentration (EC50) in [7] was determined as 950 nM.

In turn, `CC(C)(C)c1ccc(N(C(=O)c2ccco2)[C@@H](C(=O)NC2CCCCC2)c2cccnc2)cc1` had an IC50 in data set [1] of 2390 nM. The compound also returned a CC50 in [2] of 18200 nM.

Consider `O=c1[nH]cc(-c2cc(-c3cc(Cl)cc(COc4ccccc4Cl)c3)c(=O)n(-c3cccnc3)c2)c(=O)[nH]1`, for which, in [10], the IC50 came to 18 nM.

As for `Cc1ncsc1-c1ccc(CNC(=O)[C@@H]2C[C@@H](O)CN2C(=O)[C@@H](NC(=O)CCC(=O)NCCOCCn2nnc(COc3ccc(OC(=O)N[C@@H](CC(C)C)C(=O)N[C@H](C=O)C[C@@H]4CCNC4=O)cc3)c2C)C(C)(C)C)cc1`, the EC50 in data set [7] was 120 nM.

As for `Cc1ncsc1-c1ccc(CNC(=O)[C@@H]2C[C@@H](O)CN2C(=O)[C@@H](NC(=O)CCOCCOCCOCCn2nnc(COc3ccc(OC(=O)N[C@@H](CC(C)C)C(=O)N[C@H](CO)C[C@@H]4CCNC4=O)cc3)c2C)C(C)(C)C)cc1`, the 50% effective concentration (EC50) in data set [7] was found to be 750 nM.

Turning to `O=C1c2c(O)cc(O)cc2O[C@H](c2cc(O)c(O)c(O)c2)[C@H]1O` [AMPELOPSIN], the EC50 in the data set with SARS-CoV-2 [5] was determined as 13600 nM.

(Values after ChEMBL document CHEMBL5512603, “Development of de-novo coronavirus 3-chymotrypsin-like protease (3CLpro) inhibitors since COVID-19 outbreak: A strategy to tackle challenges of persistent virus infection” (Eur J Med Chem, 2024).)
